≈ marks a conversion by molar mass, not a printed value. Read-outs that look alike come from different tables or passages of the source.
What was measured:
HT29 cell line = assay: HT29 cell assay (analogous MTT procedure); type: cell-based; settings: Homo sapiens, HT-29; procedure analogous to P388
Description: (§1) To assess the antiproliferative effects of agents against P388 cells, 200 μl cultures (96-well tissue culture plates, Nunc, Denmark) were established at 1×10^5 cells/ml in drug-free medium containing agents at various concentrations. After 48 hour exposures, P388 cells were enumerated using 3-[4,5-dimethylthiazol-2-yl]-2,5-diphenyltetrazolium bromide (MTT) as described below.
(§2) To quantitate the effects of agents on cell proliferation, 75 μl warm growth medium containing 5 mg/ml MTT was added to each well. Cultures were returned to the incubator and left undisturbed for 90 minutes. To spectrophotometrically quantitate formation of reduced formazan, plates were centrifuges (900 g, 5 minutes), culture fluids were removed by aspiration, and 200 μl of acidified isopropanol (2 ml concentrated HCl/L isopropanol) added per well. The absorbance of the resulting solutions were measured at 570 nm with a plate reader (MR700 Microplate Reader, Dynatech Laboratories, Chantilly, Va.). […] A linear relationship between P388 cell number and formazan production was found over the range of cell densities observed in this study.
(§3) Analogous procedures were followed for the A549 and HT29 cell lines.

[1] = tested on: P388 murine leukemia cells; assay: P388 mouse leukemia cell antiproliferative assay (MTT); type: cell-based; settings: 48 hour exposure
Description: P388 murine leukemia cells obtained from Dr. J. Mayo, National Cancer Institute, Bethesda, Md., were maintained in Roswell Park Memorial Institute medium 1640 (RPMI-1640) supplemented with 10% horse serum and cultured in plastic tissue culture flasks and kept in an incubator at 37° C. in humidified air containing 5% CO2. Antibiotic-free stock cultures of P388 cells were subcultured to 10^5 cells/ml by dilutions in fresh growth medium at 2 to 5 day intervals.
as §1, §2

C. albicans = C. albicans MIC (microtiter broth dilution); type: cell-based, Candida albicans (ATCC strain 44506); settings: Candida albicans, read-out: C. albicans MIC
Description: (§4) All media were autoclaved at 121° C. for 15 minutes. Candida albicans: C. albicans (ATCC strain 44506) was grown on Sabouraud dextrose agar to produce single colonies, one of which was used to inoculate Sabouraud dextrose broth. The broth was incubated at 37° C. with shaking at 200 rpm for 18 hours. The resultant culture was brought to 10% (v/v) glycerol, frozen at -80° C., and used as the inoculum for the anti-Candida assay. Aspergillus nidulans: A. nidulans (ATCC strain 36321) was grown from a spore stock on the surface of a YAG plate (YAG: yeast extract 0.5%; glucose 2%; agar 2%) at 30° C. until the colony sporulated; at this point the colony was green (usually within one week). Spores were harvested by washing with 0.1% (v/v) TRITON™ X-100. Spores were then washed with distilled water before freezing at -80° C. in the presence of 10% (v/v) glycerol. Bacillus subtilis: Standard spore stocks (ATCC strain 6633) were purchased from Difco (#0453-36-0). Escherichia coli: The BMR strain was used. This was grown overnight with shaking at 37° C. in nutrient broth and frozen in 1 mL aliquots in the presence of 10% (v/v) glycerol at -80° C. Pseudomonas aeruginosa: (ATCC strain 27853) Grown and stored as described for E. coli.
Two-fold dilutions of the drug/extract were prepared in 50 μL volumes of a suitable solvent using 96-well microtiter plates. A 25% mixture of MeOH in water was generally used; however, EtOH, 5% EtOAc in EtOH, DMSO, or other compatible solvents could be substituted if necessary. In a separate 96-well plate, 35 μL volumes of either Sabouraud dextrose broth or RPMI-1640 were placed in each well. The drug/extract (5 μL) was then transferred to the broth using a 12-place pipettor. An inoculum of C. albicans in the appropriate medium was added to give a cell density of 1000 cells/mL and a total volume of 50 μL. […] SDB plates were incubated at 37° C. overnight, RPMI-1640 plates were incubated at 37° C. in a humidified atmosphere of 10% CO2.

A549 cell line = assay: A549 cell assay (analogous MTT procedure); type: cell-based; settings: Homo sapiens, procedure analogous to P388
Description: as §1, §2, §3

B. subtilis = B. subtilis growth inhibition (disc diffusion assay); type: cell-based, Bacillus subtilis (ATCC strain 6633); settings: result in words
Description: as §4, with “This was grown overnight with shaking at 37° C. in nutrient broth and frozen in 1 mL aliquots in the presence of 10% (v/v) glycerol at -80° C. Pseudomonas aeruginosa: (ATCC strain 27853) Grown and stored as described for E. coli.” left out
Paper discs (6.35 mm) were impregnated with the test substance and allowed to dry. […] Plates were incubated overnight (C. albicans, B. subtilis, E. coli, and P. aeruginosa 37° C.; and A. nidulans 30° C.) after which time the zones of growth inhibition could be read. These are expressed as the diameter of the zone in millimeters. […]

[2] = lowest concentration completely inhibiting growth

For Cn1cc2c3c1C(=O)C(N)=C(Cl)C3=NCC2 [Isobatzelline C], the IC50 (HT29 cell line) was 10 µg/mL (≈ 42.4 µM), the IC50 [1] was 12.6 µg/mL (≈ 53.5 µM) and the MIC (C. albicans) was 50 µg/mL (≈ 212 µM). For the same compound, the IC50 (A549 cell line) was > 20 µg/mL.

CSc1c2c3c(n1C)C(=O)C(N)=C(Cl)C3=NCC2 [Isobatzelline A] was tested, and the IC50 (HT29 cell line) was 0.44 µg/mL (≈ 1.56 µM), the “inhibition of the growth of B. subtilis” value (B. subtilis) was “inhibit the growth of B. subtilis” and the IC50 [1] was 0.42 µg/mL (≈ 1.49 µM). It also gave an MIC (C. albicans; [2]) of 3.1 µg/mL (≈ 11 µM) and an IC50 (A549 cell line) of 0.07 µg/mL (≈ 0.248 µM).

With CSc1c2ccnc3c2c(n1C)C(=O)C(N)=C3Cl [Isobatzelline D] the IC50 (HT29 cell line) was > 20 µg/mL, the IC50 [1] was 20 µg/mL (≈ 71.5 µM) and the MIC (C. albicans; [2]) was 25 µg/mL (≈ 89.4 µM). The IC50 (A549 cell line) was > 20 µg/mL.

CSc1c2c3c(n1C)C(=O)C(N)=CC3=NCC2 [Isobatzelline B] showed an IC50 (HT29 cell line) of 2.5 µg/mL (≈ 10.1 µM), an IC50 [1] of 2.6 µg/mL (≈ 10.5 µM) and an MIC (C. albicans; [2]) of 25 µg/mL (≈ 101 µM). The IC50 (A549 cell line) was 2.8 µg/mL (≈ 11.3 µM).

— US5028613A, “Novel pyrroloquinoline alkaloids and methods of use” (Repligen Corporation, priority 1990, dated 1991)
